Assay results published in publication PMC3834941, “Pharmacokinetic Evaluation of a DSPE-PEG2000 Micellar Formulation of Ridaforolimus in Rat” (Pharmaceutics, 2012).

How the values were obtained:
[1] = In vitro release by dialysis into PBS pH 7.4, 37 °C; format: physicochemical; settings: free drug
Protocol: The in vitro release of the drug from DSPE-PEG2000 micelles into PBS (pH 7.4) was done by a dialysis method. Dialysis was carried out at 37 °C under sink condition using a 10-kDa MWCO dialysis tubing (SnakeSkin®, Thermo Scientific Inc., Rockford, IL, USA). The initial volume of drug-loaded micelles in the dialysis tubing was 2 mL and the sink solution was 4 L. The PBS was changed several times per day to maintain sink conditions. After pre-determined time intervals, samples were withdrawn from the dialysis bag and analyzed by a reversed phase HPLC column (TSK-GEL® ODS-100Z, Tosoh Bioscience) at 50 °C with UV detection at 290 nm.

[2] = parameters: method as in PMID 19228743; settings: humans, clinical Phase I trials; cited from earlier work

- in vitro release t50% [1]: less than 20 min
- in vitro release t90% [1]: 1 h
Compound: CO[C@H]1C[C@@H]2CC[C@@H](C)[C@@](O)(O2)C(=O)C(=O)N2CCCC[C@H]2C(=O)O[C@H]([C@H](C)C[C@@H]2CC[C@@H](OP(C)(C)=O)[C@H](OC)C2)CC(=O)[C@H](C)/C=C(\C)[C@@H](O)[C@@H](OC)C(=O)[C@H](C)C[C@H](C)/C=C/C=C/C=C/1C [Ridaforolimus, ridaforolimus]
- half-life [2]: 45 to 52 h
